In patent US20040234531A1, “Chimeric human leukocyte antigen and epitope-bearing molecules having immunosuppressant activity” (priority 2001, published 2004):

How the values were obtained:
[1] = tested on: lymph node cells from GAD65-immunized HLA-DR4 transgenic mice; assay: Proliferation and cytokines of lymph node cells from HLA-DR4 transgenic mice immunized with p271-285 GAD65 peptide; type: cell-based, mouse
Experimental: (§1) FIG. 9A-C. Potency of human DEF molecules in activating murine specific T cells. (A) Lymph node cells (3×10^5) from HLA-DR4 transgenic mice immunized with p271-285 GAD65 peptide were cultured for five dats in the presence of spleen cells (2×10^5) from naive HLA-DR4 mice and 5, 10 or 15 μg/ml of GAD65 peptide or 0.05, 0.5 or 1 μg/ml of DEF-GAD65. (B) Using the same protocol as for (A), cells from mice immunized withp73-90 proinsulin peptide wee stimulated with the same doses of proinsulin peptide or DEF-Pi. […] The proliferative responses are expressed as Δcpm=specific cpm−background cpm.
(§2) HLA-DR*0401 +/+, Abb −/− mice ([…], Taconic, Germantown, N.Y.) expressthe α1β1 domains of HLA-DR*0401 linked to the α2β2 domains of I-E^d, and at the same time are deficient for endogenous MHC class II (1-A^b, I-E^b) molecules (Abb −/−).
(§3) Groups of five mice were immunized in the footpads with either 100 micrograms of p271-285 GAD65 peptide or p73-90 proinsulin peptide in Complete Freund's Adjuvant (“CFA”). Lymph nodes were harvested ten days later and cells from GAD65-immunized mice were stimulated in vitro with various doses of p271-285 synthetic peptide, DEF-GAD65 or empty DEF molecules. […] The amount of peptide carried by the human DEF molecules was normalized on a molar basis, and the immunopotency determined as described in Casares et al., 1999, 3. […]

[2] = tested on: lymph node cells from proinsulin-immunized HLA-DR4 transgenic mice; assay: Proliferation and cytokines of lymph node cells from HLA-DR4 transgenic mice immunized with p73-90 proinsulin peptide; type: cell-based, mouse
Experimental: as §1, §2, §3

Substance | EC50 ([1]; cells from GAD65-immunized mice, read-out: Half-maximal proliferation of stimulated cells) [nM] | cytokine production in culture supernatants ([1]; day 5, ELISA) | EC50 ([2]; cells from proinsulin-immunized mice, read-out: Half-maximal proliferation of stimulated cells) [nM] | cytokine production in culture supernatants ([2]; day 5, ELISA)
GAD65 peptide PRLIAFTSEHSHFSL (SEQ ID NO:10) (listed as Homo sapiens) [p271-285] | 1000 | also secreted IL-10 |  | 
proinsulin peptide GAGSLQPLALEGSLQKRG (SEQ ID NO: 43) (listed as Homo sapiens) [p73-90] |  |  | 2500 | secreted IL-2 but not IL-10
